In US7402593B2 (priority 2004, dated 2008):

Key:
[1] = in vivo; details: dog, plasma, po, 50 mg/kg
[2] = compared with other PPIs such as omeprazole or lansoprazole; cited from earlier work
[3] = solubility in water

Work on COc1ccc2[nH]c([S+]([O-])Cc3ncc(C)c(OC)c3C)nc2n1 (racemic) [racemic tenatoprazole, 5-methoxy-2-[ [(4-methoxy-3,5-dimethyl-2-pyridyl)methyl]sulfinyl]imidazo[4,5-b]pyridine] yielded an AUC(0-t) [1] of 156 µg·h/mL, a Cmax [1] of 50.2 ng/mL and a Tmax [1] of 1.5 h. The “half-life in plasma relative to other PPIs” value [2] was “approximately seven times longer” and the solubility ([3]; water) was < 1000 µg/mL.
For COc1ccc2nc([S+]([O-])Cc3ncc(C)c(OC)c3C)[n-]c2n1.[Na+] (racemic) [sodium salt of racemic tenatoprazole], the “highest concentration of solution obtainable” value ([3]; room temperature) was ≤ 19 g/L.
